In brackets after ≈: the same amount, converted by molar mass.

The values below come from ChEMBL document CHEMBL1126134, “7,8-Dihydro-8-ethyl-2-(3-noradamantyl)-4-propyl-1H-imidazo[2,1-i]purin-5(4H)-one: a potent and water-soluble adenosine A1 antagonist” (J Med Chem, 1992).

Series [1] concerns the target T1, Adenosine receptor A1 (Cavia porcellus, UniProt P47745).
T1 sequence (P47745 whole entry): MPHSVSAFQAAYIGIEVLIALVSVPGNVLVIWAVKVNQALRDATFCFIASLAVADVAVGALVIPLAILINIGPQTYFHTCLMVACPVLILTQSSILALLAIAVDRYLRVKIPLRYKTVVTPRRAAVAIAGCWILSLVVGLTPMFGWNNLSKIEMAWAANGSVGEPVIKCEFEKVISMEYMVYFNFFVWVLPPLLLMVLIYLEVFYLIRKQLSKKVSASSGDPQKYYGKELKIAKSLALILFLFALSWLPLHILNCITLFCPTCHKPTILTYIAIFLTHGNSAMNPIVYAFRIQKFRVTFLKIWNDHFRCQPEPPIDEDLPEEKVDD
The format is cell membranes, Brain membranes.

The next series is described as follows: physchem. The conditions noted are these: water.
Series [2] can be described thus: Solubility was measured in saline. The class given is physicochemical.
The target in series [3] is T1, Adenosine receptor A1. The class given is cell membranes, Brain membranes. The source holds these as a separate data set.
Another series addresses Adenosine A2 receptor (Homo sapiens, UniProt P29275+P29274). In words: Binding affinity for adenosine A2 receptor using N-[3H]-ethyladenosin-5''-uronamide in guinea pig forebrain membranes.

Description for physchem: Solubility of the compound(10 mg) was measured in water(2.5 mL) at 20 degree celsius for 1 hr

Take `CCCN1C(=O)N2C[C@@H](CC)N=C2c2[nH]c(C34CC5CC(CC3C5)C4)nc21`: at Adenosine receptor A1 [1], the Ki came out at 2.7 nM. This compound came in with a solubility at 1 h in the series “physchem” of 3000 µg/mL (≈ 8160 µM).
In the same order, the values of `CCCN1C(=O)N2C[C@H](CC)N=C2c2[nH]c(C34CC5CC(CC3C5)C4)nc21` are 120 nM and 2900 µg/mL (≈ 7890 µM).
`CCCN1C(=O)N2CC(CC)N=C2c2[nH]c(C34CC5CC(CC3C5)C4)nc21` (stereo not given) gave a solubility in series [2] of 990 µg/mL (≈ 2690 µM). Further, the affinity at Adenosine receptor A1 [3] corresponds to a Ki of 5.7 nM. Moreover, in the series “physchem”, the solubility at 1 h worked out at 3200 µg/mL (≈ 8710 µM).
In series [2], `CCCn1c(=O)c2nc(C(C3CC3)C3CC3)[nH]c2n(CCC)c1=O` displayed a solubility of 5.8 µg/mL (≈ 17.6 µM). Moreover, the Ki at Adenosine A2 receptor was 430 nM. For the same compound, the solubility at 1 h in “physchem” stood at 8.5 µg/mL (≈ 25.7 µM).
In turn, `CCCn1c(=O)c2[nH]c(C3CCC(=O)C3)nc2n(CCC)c1=O` (stereo not given) came in with a solubility in series [2] of 200 µg/mL (≈ 628 µM). In addition, the solubility at 1 h in “physchem” stood at 220 µg/mL (≈ 691 µM).
On to `CCCn1c(=O)c2[nH]c(C3CCCC3)nc2n(CCC)c1=O` [1,3-DIPROPYL-8-CYCLOPENTYLXANTHINE [DPCPX]], for which the solubility at 1 h in “physchem” worked out at 3.3 µg/mL (≈ 10.8 µM).
On to `CCCn1c(=O)c2[nH]c(C34CC5CC(CC3C5)C4)nc2n(CCC)c1=O` [ROLOFYLLINE], for which the solubility in series [2] came to 0.6 µg/mL (≈ 1.68 µM). This compound gave a solubility at 1 h in “physchem” of 0.5 µg/mL (≈ 1.4 µM).
